In patent publication US11717508B2, “Compounds, compositions, and methods for inhibiting bacterial growth” (priority 2016, dated 2023):
Several values for one entry are separate records, joined by “and”; a condition that tells them apart may be missing. Equal values may be shown once. Read-outs that look alike come from different tables or passages of the source.

Tested on: DosRST regulon
Type: cell-based

C[C@@H]1CC[C@H]2[C@@H](C)C(=O)O[C@@H]3O[C@]4(C)CC[C@@H]1[C@]32OO4 [HC101A, artemisinin, reference compound]
downregulation of tgs1 gene (transcriptional profiling) (CDC1551, 40 μM, 6 days): ~100 fold
Counts per million (CPM) WT_HC101A (gene MT0055): 35.17 CPM and 29.03 CPM
log2 Fold change (gene MT0055): −1.288
Counts per million (CPM) WT_HC101A (gene MT0062 (Rv0056 rp11)): 104.6 CPM and 99.67 CPM
log2 Fold change (gene MT0062 (Rv0056 rp11)): −1.059
log2 Fold change (gene MT0086 Rv0079): −1.314
Counts per million (CPM) WT_HC101A (gene MT0105 (Rv0096 PPE)): 8.529 CPM and 7.796 CPM
log2 Fold change (gene MT0105 (Rv0096 PPE)): −1.583
Counts per million (CPM) WT_HC101A (gene MT0106 (Rv0097)): 24.38 CPM and 21.53 CPM
log2 Fold change (gene MT0106 (Rv0097)): −1.646
Counts per million (CPM) WT_HC101A (gene MT0107 (Rv0098)): 11.7 CPM and 9.891 CPM
log2 Fold change (gene MT0107 (Rv0098)): −1.652
Counts per million (CPM) WT_HC101A (gene MT0108 (Rv0099 fadD10)): 39.35 CPM and 32.64 CPM
log2 Fold change (gene MT0108 (Rv0099 fadD10)): −1.057
Counts per million (CPM) WT_HC101A (gene MT0117): 157.5 CPM and 202.6 CPM
log2 Fold change (gene MT0117): −1.008
Counts per million (CPM) WT_HC101A (gene MT0122 (Rv0113 gmhA)): 36.48 CPM and 25.54 CPM
log2 Fold change (gene MT0122 (Rv0113 gmhA)): −1.031
Counts per million (CPM) WT_HC101A (gene MT0124): 5.295 CPM and 3.898 CPM
log2 Fold change (gene MT0124): −1.954
Counts per million (CPM) WT_HC101A (gene MT0175 (Rv0166 fadD5)): 67.07 CPM and 45.73 CPM
log2 Fold change (gene MT0175 (Rv0166 fadD5)): −1.959
Counts per million (CPM) WT_HC101A (gene MT0176): 118.5 CPM and 96.7 CPM
log2 Fold change (gene MT0176): −1.284
Counts per million (CPM) WT_HC101A (gene MT0178 (Rv0169 mcel)): 178.5 CPM and 133.6 CPM
log2 Fold change (gene MT0178 (Rv0169 mcel)): −1.664
log2 Fold change (gene MT0179 (Rv0170)): −1.755
log2 Fold change (gene MT0180 (Rv0171)): −1.645
log2 Fold change (gene MT0181 (Rv0172)): −1.502
log2 Fold change (gene MT0182 (Rv0173 IprK)): −1.638
log2 Fold change (gene MT0183 (Rv0174)): 1.264
log2 Fold change (gene MT0241 (Rv0231 fadE4)): −1.266
log2 Fold change (gene MT0244 (Rv0233 nrdB)): −1.533
log2 Fold change (gene MT0329 (Rv0315)): −1.589
log2 Fold change (gene MT0417): −1.313
log2 Fold change (gene MT0423 (Rv0410c pknG)): −1.948
log2 Fold change (gene MT0424 (Rv0411c glnH)): −1.654
log2 Fold change (gene MT0425 (Rv0412c)): −1.504
log2 Fold change (gene MT0429 (Rv0416)): −1.414
log2 Fold change (gene MT0434): −1.079
log2 Fold change (gene MT0524): −1.085
log2 Fold change (gene MT0595 Rv0569): −2.701
log2 Fold change (gene MT0596 Rv0570 nrdZ): −4.516
log2 Fold change (gene MT0597 Rv0571c): −2.001
log2 Fold change (gene MT0599 Rv0572c): −3.648
log2 Fold change (gene MT0600): −4.304
log2 Fold change (gene MT0601 Rv0573c): −2.988
log2 Fold change (gene MT0602 Rv0574c): −3.56
log2 Fold change (gene MT0637 (Rv0608)): −1.073
log2 Fold change (gene MT0735 (Rv0708 rplP)): −1.134
log2 Fold change (gene MT0736 (Rv0709 rpmC)): −1.065
log2 Fold change (gene MT0741): −1.181
log2 Fold change (gene MT0741.1 (Rv0715 rplX)): −1.23
log2 Fold change (gene MT0742.1 (Rv0717 rpsN)): −1.057
log2 Fold change (gene MT0747 (Rv0722 rpmD)): −1.393
log2 Fold change (gene MT0846 Rv0824c desA1): −1.662
log2 Fold change (gene MT0877 (Rv0854)): −1.066
log2 Fold change (gene MT0898): −3.3
log2 Fold change (gene MT0908 (Rv0885)): −1.929
log2 Fold change (gene MT0909 (Rv0886 fprB)): −1.498
log2 Fold change (gene MT0911 (Rv0888)): −2.361
log2 Fold change (gene MT1002 (Rv0974c accD2)): −1.787
log2 Fold change (gene MT1019 (Rv0990c)): −1.168
log2 Fold change (gene MT1020): −1.37
log2 Fold change (gene MT1056 (Rv1037c)): −1.377
log2 Fold change (gene MT1095 Rv1065): −1.172
Counts per million (CPM) WT_HC101A (gene MT1823 (Rv1773c)): 189.6 CPM and 111.2 CPM
log2 Fold change (gene MT1823 (Rv1773c)): −1.79
Counts per million (CPM) WT_HC101A (gene MT1840 (Rv1791 PE)): 169.4 CPM and 147.4 CPM
log2 Fold change (gene MT1840 (Rv1791 PE)): −1.118
Counts per million (CPM) WT_HC101A (gene MT1850 (Rv1812c)): 69.36 CPM and 114.1 CPM
log2 Fold change (gene MT1850 (Rv1812c)): −1.173
log2 Fold change (gene MT1851 Rv1813c): −4.29
Counts per million (CPM) WT_HC101A (gene MT1882 (Rv1834)): 28.5 CPM and 25.48 CPM
log2 Fold change (gene MT1882 (Rv1834)): −1.56
Counts per million (CPM) WT_HC101A (gene MT1932): 219.8 CPM and 285.7 CPM
log2 Fold change (gene MT1932): −1.182
Counts per million (CPM) WT_HC101A (gene MT1942): 74.52 CPM and 69.7 CPM
log2 Fold change (gene MT1942): −1.048
Counts per million (CPM) WT_HC101A (gene MT1943): 65.44 CPM and 61.15 CPM
log2 Fold change (gene MT1943): −1.048
Counts per million (CPM) WT_HC101A (gene MT1955 (Rv1904)): 88.58 CPM and 104.4 CPM
log2 Fold change (gene MT1955 (Rv1904)): −1.006
Counts per million (CPM) WT_HC101A (gene MT1959 (Rv1918c PPE)): 62.82 CPM and 65.51 CPM
log2 Fold change (gene MT1959 (Rv1918c PPE)): −1.121
Counts per million (CPM) WT_HC101A (gene MT1986 (Rv1936)): 47.53 CPM and 27.87 CPM
log2 Fold change (gene MT1986 (Rv1936)): −2.373
Counts per million (CPM) WT_HC101A (gene MT1987 (Rv1937)): 66.35 CPM and 34.04 CPM
log2 Fold change (gene MT1987 (Rv1937)): −2.295
Counts per million (CPM) WT_HC101A (gene MT1988 (Rv1938 cphB)): 24.12 CPM and 13.5 CPM
log2 Fold change (gene MT1988 (Rv1938 cphB)): −2.344
Counts per million (CPM) WT_HC101A (gene MT1989 (Rv1939)): 13.56 CPM and 7.389 CPM
log2 Fold change (gene MT1989 (Rv1939)): −2.045
Counts per million (CPM) WT_HC101A (gene MT2007): 22.23 CPM and 14.6 CPM
log2 Fold change (gene MT2007): −1.243
Counts per million (CPM) WT_HC101A (gene MT2016 (Rv1964)): 104.5 CPM and 57.78 CPM
log2 Fold change (gene MT2016 (Rv1964)): −1.754
Counts per million (CPM) WT_HC101A (gene MT2017): 43.41 CPM and 25.54 CPM
log2 Fold change (gene MT2017): −2.544
Counts per million (CPM) WT_HC101A (gene MT2018 (Rv1966 mce3)): 50.34 CPM and 26.88 CPM
log2 Fold change (gene MT2018 (Rv1966 mce3)): −2.558
Counts per million (CPM) WT_HC101A (gene MT2019 (Rv1967)): 52.89 CPM and 27.87 CPM
log2 Fold change (gene MT2019 (Rv1967)): −2.496
log2 Fold change (gene MT2020 Rv1968): −2.621
Counts per million (CPM) WT_HC101A (gene MT2021 (Rv1969)): 23.73 CPM and 17.45 CPM
log2 Fold change (gene MT2021 (Rv1969)): −1.799
Counts per million (CPM) WT_HC101A (gene MT2022 (Rv1970 lprM)): 37.39 CPM and 24.44 CPM
log2 Fold change (gene MT2022 (Rv1970 lprM)): −2.347
Counts per million (CPM) WT_HC101A (gene MT2023 (Rv1971)): 53.54 CPM and 31.19 CPM
log2 Fold change (gene MT2023 (Rv1971)): −2.293
Counts per million (CPM) WT_HC101A (gene MT2024 (Rv1972)): 16.15 CPM and 10.41 CPM
log2 Fold change (gene MT2024 (Rv1972)): −1.124
Counts per million (CPM) WT_HC101A (gene MT2042.1): 19.87 CPM and 29.96 CPM
log2 Fold change (gene MT2042.1): −1.522
Counts per million (CPM) WT_HC101A (gene MT2050 (Rv2004c)): 234 CPM and 227.9 CPM
log2 Fold change (gene MT2050 (Rv2004c)): −3.602
Counts per million (CPM) WT_HC101A (gene MT2051 (Rv2005c)): 149.3 CPM and 179.3 CPM
log2 Fold change (gene MT2051 (Rv2005c)): −3.859
Counts per million (CPM) WT_HC101A (gene MT2052 (Rv1996)): 177.9 CPM and 195.4 CPM
log2 Fold change (gene MT2052 (Rv1996)): −7.087
Counts per million (CPM) WT_HC101A (gene MT2052 (Rv2006 otsB)): 122.8 CPM and 137.5 CPM
log2 Fold change (gene MT2052 (Rv2006 otsB)): −2.478
Counts per million (CPM) WT_HC101A (gene MT2053 (Rv1997 ctpF)): 70.21 CPM and 92.04 CPM
log2 Fold change (gene MT2053 (Rv1997 ctpF)): 4.931
log2 Fold change (gene MT2053 (Rv2007c fdxA)): −3.149
Counts per million (CPM) WT_HC101A (gene MT2059 (Rv2003c)): 101.8 CPM and 119.9 CPM
log2 Fold change (gene MT2059 (Rv2003c)): −2.726
Counts per million (CPM) WT_HC101A (gene MT2079 (Rv2023c)): 11.24 CPM and 12.86 CPM
log2 Fold change (gene MT2079 (Rv2023c)): −1.5
Counts per million (CPM) WT_HC101A (gene MT2080): 28.31 CPM and 33.92 CPM
log2 Fold change (gene MT2080): −1.521
Counts per million (CPM) WT_HC101A (gene MT2086 (Rv2027c)): 56.35 CPM and 58.94 CPM
log2 Fold change (gene MT2086 (Rv2027c)): −2.22
log2 Fold change (gene MT2087 Rv2028c): −3.553
Counts per million (CPM) WT_HC101A (gene MT2088): 91.91 CPM and 170.4 CPM
log2 Fold change (gene MT2088): −4.873
log2 Fold change (gene MT2089 Rv2030c): −4.16
log2 Fold change (gene MT2090): −5.249
log2 Fold change (gene MT2091 Rv2032): −4.893
Counts per million (CPM) WT_HC101A (gene MT2156 (Rv2107 PE)): 20.07 CPM and 13.38 CPM
log2 Fold change (gene MT2156 (Rv2107 PE)): −1.59
Counts per million (CPM) WT_HC101A (gene MT2278 (Rv2220 glnAl)): 436.2 CPM and 385.9 CPM
log2 Fold change (gene MT2278 (Rv2220 glnAl)): −1.475
Counts per million (CPM) WT_HC101A (gene MT2304 (Rv2244 acpM)): 626.7 CPM and 987.4 CPM
log2 Fold change (gene MT2304 (Rv2244 acpM)): −2.163
log2 Fold change (gene MT2305 (Rv2245 kasA)): −1.728
Counts per million (CPM) WT_HC101A (gene MT2306): 581.8 CPM and 834.9 CPM
log2 Fold change (gene MT2306): −1.559
log2 Fold change (gene MT2307 (Rv2247 accD6)): −1.121
Counts per million (CPM) WT_HC101A (gene MT2329 (Rv2267c)): 24.25 CPM and 27 CPM
log2 Fold change (gene MT2329 (Rv2267c)): −1.234
